Laboratory results from PubChem BioAssay AID1963961 (Molecular Pharmacology Branch, DTP, NCI, 2024).
One block for each compound: values may come before it.

Tested on: K98450-129-R-PDC multicell spheroids, viability
Assay: Anticancer human tumor K98450-129-R-PDC patient-derived colon adenocarcinoma cell line growth inhibition [PI3K]
Settings: for viability, T/C: stronger effect = lower value
Outline: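 Stroma-containing spheroids: tumor line, pooled-donor HUVEC, hMSC. Treatments: targeted agents with PI3K inhibitors. Dosing: clinically relevant, half-log spacing, 10 microM ceiling without known Cmax. Read-out: cell viability.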

[1] = curve of first compound, second compound 0.0316 µM
[2] = curve of first compound, second compound 0.1 µM
[3] = curve of first compound, second compound 0.316 µM
[4] = curve of first compound, second compound 1 µM
[5] = second compound 0.0316 µM, first compound 0.000316 µM
[6] = second compound 0.0316 µM, first compound 0.001 µM
[7] = second compound 0.0316 µM, first compound 0.00316 µM
[8] = second compound 0.0316 µM, first compound 0.01 µM
[9] = second compound 0.0316 µM, first compound 0.0316 µM
[10] = second compound 0.0316 µM, first compound 0.1 µM
[11] = second compound 0.1 µM, first compound 0.000316 µM
[12] = second compound 0.1 µM, first compound 0.001 µM
[13] = second compound 0.1 µM, first compound 0.00316 µM
[14] = second compound 0.1 µM, first compound 0.01 µM
[15] = second compound 0.1 µM, first compound 0.0316 µM
[16] = second compound 0.1 µM, first compound 0.1 µM
[17] = second compound 0.316 µM, first compound 0.000316 µM
[18] = second compound 0.316 µM, first compound 0.001 µM
[19] = second compound 0.316 µM, first compound 0.00316 µM
[20] = second compound 0.316 µM, first compound 0.01 µM
[21] = second compound 0.316 µM, first compound 0.0316 µM
[22] = second compound 0.316 µM, first compound 0.1 µM
[23] = second compound 1 µM, first compound 0.000316 µM
[24] = second compound 1 µM, first compound 0.001 µM
[25] = second compound 1 µM, first compound 0.00316 µM
[26] = second compound 1 µM, first compound 0.01 µM
[27] = second compound 1 µM, first compound 0.0316 µM
[28] = second compound 1 µM, first compound 0.1 µM
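Note: spheroids exposed to agents for seven days before read-out.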

IC50 (curve of first compound, second compound 0.00316 µM): > 0.1 µM
IC50 (curve of first compound, second compound 0.01 µM): > 0.1 µM
IC50 [1]: > 0.1 µM
IC50 [2]: > 0.1 µM
IC50 [3]: > 0.1 µM
IC50 [4]: 0.046 µM
SMILES: CC(=O)c1c(C)c2cnc(Nc3ccc(N4CCNCC4)cn3)nc2n(C2CCCC2)c1=O + COc1c(OCCCN2CCOCC2)ccc2c3n(c(=NC(=O)c4cnc(N)nc4)nc12)CCN3
viability, T/C (second compound 0.00316 µM, first compound 0.000316 µM): 114%
viability, T/C (second compound 0.00316 µM, first compound 0.001 µM): 119%
viability, T/C (second compound 0.00316 µM, first compound 0.00316 µM): 93.7%
viability, T/C (second compound 0.00316 µM, first compound 0.01 µM): 90.5%
viability, T/C (second compound 0.00316 µM, first compound 0.0316 µM): 101%
viability, T/C (second compound 0.00316 µM, first compound 0.1 µM): 95.8%
viability, T/C (second compound 0.01 µM, first compound 0.000316 µM): 109%
viability, T/C (second compound 0.01 µM, first compound 0.001 µM): 101%
viability, T/C (second compound 0.01 µM, first compound 0.00316 µM): 97.3%
viability, T/C (second compound 0.01 µM, first compound 0.01 µM): 91.1%
viability, T/C (second compound 0.01 µM, first compound 0.0316 µM): 98.1%
viability, T/C (second compound 0.01 µM, first compound 0.1 µM): 92.4%
viability, T/C [5]: 85.7%
viability, T/C [6]: 96.7%
viability, T/C [7]: 97.3%
viability, T/C [8]: 87.6%
viability, T/C [9]: 86.5%
viability, T/C [10]: 70.4%
viability, T/C [11]: 78.9%
viability, T/C [12]: 81.1%
viability, T/C [13]: 74.3%
viability, T/C [14]: 67%
viability, T/C [15]: 79.3%
viability, T/C [16]: 72.1%
viability, T/C [17]: 59%
viability, T/C [18]: 68.7%
viability, T/C [19]: 65.7%
viability, T/C [20]: 58.2%
viability, T/C [21]: 70%
viability, T/C [22]: 56.1%
viability, T/C [23]: 62%
viability, T/C [24]: 48.5%
viability, T/C [25]: 51.6%
viability, T/C [26]: 57.7%
viability, T/C [27]: 57.8%
viability, T/C [28]: 38.8%

IC50 (curve of compound): 6.15 µM [middle of 4 runs]
SMILES: CCCS(=O)(=O)Nc1ccc(F)c(C(=O)c2c[nH]c3ncc(-c4ccc(Cl)cc4)cc23)c1F
viability, T/C (compound 0.0316 µM): 104% [middle of 4 runs]
viability, T/C (compound 0.316 µM): 116% [middle of 4 runs]
viability, T/C (compound 10 µM): 7.9% [middle of 4 runs]

IC50 [1]: > 0.1 µM
IC50 [2]: > 0.1 µM
IC50 [3]: > 0.1 µM
IC50 [4]: > 0.1 µM
IC50 (curve of first compound, second compound 3.16 µM): > 0.1 µM
IC50 (curve of first compound, second compound 10 µM): > 0.1 µM
SMILES: CC(C)n1nc(-c2ccc3oc(N)nc3c2)c2c(N)ncnc21 + Cc1nc(NC(=O)N2CCCC2C(N)=O)sc1-c1ccnc(C(C)(C)C(F)(F)F)c1
viability, T/C [5]: 102%
viability, T/C [6]: 97.8%
viability, T/C [7]: 101%
viability, T/C [8]: 91.2%
viability, T/C [9]: 87.2%
viability, T/C [10]: 75.3%
viability, T/C [11]: 106%
viability, T/C [12]: 95.3%
viability, T/C [13]: 99.5%
viability, T/C [14]: 91%
viability, T/C [15]: 88.8%
viability, T/C [16]: 79.9%
viability, T/C [17]: 95.8%
viability, T/C [18]: 99.5%
viability, T/C [19]: 89.2%
viability, T/C [20]: 90.2%
viability, T/C [21]: 86.4%
viability, T/C [22]: 72.3%
viability, T/C [23]: 88.6%
viability, T/C [24]: 89.5%
viability, T/C [25]: 92.8%
viability, T/C [26]: 80.2%
viability, T/C [27]: 81.9%
viability, T/C [28]: 70%
viability, T/C (second compound 3.16 µM, first compound 0.000316 µM): 79.4%
viability, T/C (second compound 3.16 µM, first compound 0.001 µM): 78%
viability, T/C (second compound 3.16 µM, first compound 0.00316 µM): 79.5%
viability, T/C (second compound 3.16 µM, first compound 0.01 µM): 70.8%
viability, T/C (second compound 3.16 µM, first compound 0.0316 µM): 77.9%
viability, T/C (second compound 3.16 µM, first compound 0.1 µM): 61.2%
viability, T/C (second compound 10 µM, first compound 0.000316 µM): 66.1%
viability, T/C (second compound 10 µM, first compound 0.001 µM): 70.9%
viability, T/C (second compound 10 µM, first compound 0.00316 µM): 69.8%
viability, T/C (second compound 10 µM, first compound 0.01 µM): 71.9%
viability, T/C (second compound 10 µM, first compound 0.0316 µM): 64.3%
viability, T/C (second compound 10 µM, first compound 0.1 µM): 59.2%
